Patent publication US6830894B1, “Compounds and methods for modulating claudin-mediated functions” (Adherex Technologies, Inc., priority 1998, dated 2004)

Test system: MDCK cell monolayers
Assay: Electrical resistance across MDCK cell monolayer
Format: cell-based, canine
Method: Yet another assay evaluates the effect of a modulating agent on the electrical resistance across a monolayer of cells. For example, Madin Darby canine kidney (MDCK) cells can be exposed to the modulating agent dissolved in medium (e.g., at a final concentration of 0.5 mg/ml for a period of 24 hours). The effect on electrical resistance can be measured using standard techniques. This assay evaluates the effect of a modulating agent on tight junction formation in epithelial cells. In general, the presence of 500 μg/mL modulating agent should result in a statistically significant decrease in electrical resistance after 24 hours.
Madin Darby canine kidney (MDCK) cells were plated in Millicells (Millipore, Bedford, Mass.), at a density of 300,000 cells per Millicell, and cultured in Dulbecco's Modified Eagle Medium (DMEM; Sigma, St. Louis, Mo.) containing 5% fetal calf serum (Sigma, St. Louis, Mo.) until monolayers formed. Monolayers were exposed to the modulating agent dissolved in medium. The electrical resistance was measured using the EVOM device (World Precision Instruments, Sarasota, Fla.). At the time of measurement, fresh medium, with or without the modulating agent, may be added to the Millicells.

[1] = cultured for 18 hours, peptide at 0.5 mg/ml, relative to medium alone (Control), FIG. 3

## H-WKIYSYAGDN-NH2 [Peptide 119]
[1]
  mean electrical resistance across MDCK cell monolayers: did not change the electrical resistance across the monolayer relative to the control

## N—Ac-WKIYSYAGDN-NH2 [Peptide 118]
[1]
  mean electrical resistance across MDCK cell monolayers: reduced the electrical resistance across the monolayer
Cultured for 24 hours, peptide at various concentrations, versus medium alone (Control), FIG. 4
  mean electrical resistance across MDCK cell monolayers: reduced the electrical resistance across the monolayer in a dose dependent manner
